Laboratory results from patent US20190365710A1, “METHODS OF TREATING CANCER” (GlaxoSmithKline Intellectual Property Development Limited, priority 2016, published 2019).

Tested on: AML cell lines
Assay: Methylscan proteomic evaluation of arginine methylation
Type: cell-based
Details: AML cell lines treated with the tool compound vs DMSO
Text: FIG. 3: Methylscan evaluation of cell lines treated with Compound D. Percent of proteins with methylation changes (independent of directionality of change) are categorized by functional group as indicated.
To identify putative PRMT1 substrates, a proteomic approach (Methylscan, Cell Signaling Technology) was utilized to identify proteins with changes in arginine methylation states in response to a tool PRMT1 inhibitor, Compound D. Protein fragments from Compound D- and DSMO-treated cell extracts were immunoprecipitated using methyl arginine specific antibodies (ADMA, MMA, SDMA), and peptides were identified by mass spectrometry.

Compound: CNCCN(C)Cc1c[nH]nc1[C@H]1CC[C@@]2(CC1)CC(C)(C)CO2 [Compound D]
- proteins with changes in arginine methylation states (Methylscan): the majority of substrates identified were transcriptional regulators and RNA processing proteins
